Each block holds one compound with its values, some of them ahead of it. Active and inactive are the calls of the source.
How the values were obtained:
[1] = target: Lysine-specific demethylase 4A (Homo sapiens, UniProt O75164); experiment: inhibition of JMJD2A H3K9me3 demethylation – biochemical, DELFIA europium, cherry-picked samples, selectivity assay for GASC-1 inhibitor project, dose response (AID 488840)
Beta-galactosidase = Beta-galactosidase (Escherichia coli, UniProt Q8VNN2); experiment: detection-enzyme interference by beta-gal modulators – biochemical, E. coli enzyme, set 3, artefact control for CCR6 antagonist project, dose response (AID 504712); format: functional
Chain of Beta-galactosidase (Q8VNN2 whole entry): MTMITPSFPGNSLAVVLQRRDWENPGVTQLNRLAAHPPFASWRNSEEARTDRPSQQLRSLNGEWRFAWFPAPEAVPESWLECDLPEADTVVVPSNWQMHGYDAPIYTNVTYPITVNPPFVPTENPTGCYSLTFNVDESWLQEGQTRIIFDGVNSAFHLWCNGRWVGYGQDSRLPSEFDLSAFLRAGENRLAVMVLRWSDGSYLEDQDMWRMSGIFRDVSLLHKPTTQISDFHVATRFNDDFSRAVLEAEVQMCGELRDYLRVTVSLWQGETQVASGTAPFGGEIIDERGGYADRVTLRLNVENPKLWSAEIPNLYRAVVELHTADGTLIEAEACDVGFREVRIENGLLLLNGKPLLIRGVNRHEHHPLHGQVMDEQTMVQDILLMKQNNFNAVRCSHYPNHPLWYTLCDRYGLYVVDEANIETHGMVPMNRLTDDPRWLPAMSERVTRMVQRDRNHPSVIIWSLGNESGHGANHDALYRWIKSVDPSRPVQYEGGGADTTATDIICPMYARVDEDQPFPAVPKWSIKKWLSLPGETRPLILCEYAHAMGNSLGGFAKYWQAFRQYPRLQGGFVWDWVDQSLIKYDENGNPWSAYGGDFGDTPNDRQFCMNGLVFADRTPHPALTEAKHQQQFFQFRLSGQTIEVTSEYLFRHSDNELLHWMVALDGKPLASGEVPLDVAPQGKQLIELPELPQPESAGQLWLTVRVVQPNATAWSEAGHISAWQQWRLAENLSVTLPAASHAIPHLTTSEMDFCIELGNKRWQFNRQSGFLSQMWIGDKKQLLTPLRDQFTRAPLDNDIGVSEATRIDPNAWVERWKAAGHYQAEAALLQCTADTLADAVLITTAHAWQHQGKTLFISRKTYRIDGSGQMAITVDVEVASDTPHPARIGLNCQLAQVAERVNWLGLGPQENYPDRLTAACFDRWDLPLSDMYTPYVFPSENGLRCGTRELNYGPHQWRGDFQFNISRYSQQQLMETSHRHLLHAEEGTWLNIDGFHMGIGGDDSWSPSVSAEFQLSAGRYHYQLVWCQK

SUMO-activating enzyme [2] = target: T1, SUMO-activating enzyme (Homo sapiens, UniProt Q9UBT2); experiment: blockers of UBC9-mediated SUMO conjugation – biochemical, AlphaScreen, SUMOylation inhibitor project, confirmation (AID 2018); format: functional
T1 sequence (Q9UBE0 whole entry): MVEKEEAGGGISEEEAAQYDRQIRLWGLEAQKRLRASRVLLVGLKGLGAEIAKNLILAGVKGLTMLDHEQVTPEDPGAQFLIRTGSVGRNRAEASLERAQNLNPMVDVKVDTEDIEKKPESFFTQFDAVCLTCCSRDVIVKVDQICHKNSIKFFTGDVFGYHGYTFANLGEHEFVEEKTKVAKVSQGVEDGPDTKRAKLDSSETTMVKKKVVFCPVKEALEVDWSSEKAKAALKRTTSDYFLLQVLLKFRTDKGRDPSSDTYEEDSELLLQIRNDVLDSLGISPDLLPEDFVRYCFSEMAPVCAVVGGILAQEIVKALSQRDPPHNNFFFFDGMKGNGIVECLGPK
T1 sequence (Q9UBT2 whole entry): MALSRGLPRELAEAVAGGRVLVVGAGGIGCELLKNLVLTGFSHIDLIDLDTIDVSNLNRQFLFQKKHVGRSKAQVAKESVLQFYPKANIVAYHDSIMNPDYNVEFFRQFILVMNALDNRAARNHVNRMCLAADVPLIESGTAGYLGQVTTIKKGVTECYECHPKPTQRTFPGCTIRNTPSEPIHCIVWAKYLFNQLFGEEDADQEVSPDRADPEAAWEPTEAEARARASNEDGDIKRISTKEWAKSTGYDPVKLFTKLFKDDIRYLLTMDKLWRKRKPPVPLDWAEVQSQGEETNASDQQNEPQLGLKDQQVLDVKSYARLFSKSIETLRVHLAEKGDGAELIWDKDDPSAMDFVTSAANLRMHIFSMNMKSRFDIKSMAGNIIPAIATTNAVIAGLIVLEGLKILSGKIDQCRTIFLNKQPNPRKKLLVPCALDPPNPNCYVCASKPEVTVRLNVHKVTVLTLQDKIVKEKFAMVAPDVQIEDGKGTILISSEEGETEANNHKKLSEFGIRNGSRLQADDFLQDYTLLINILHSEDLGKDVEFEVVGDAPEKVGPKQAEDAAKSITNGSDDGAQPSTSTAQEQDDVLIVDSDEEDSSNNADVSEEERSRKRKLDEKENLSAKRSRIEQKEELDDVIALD

[3] = target: T2, C-C chemokine receptor type 6 (Homo sapiens, UniProt P51684); experiment: antagonism of CCR6 beta-arrestin recruitment – cell-based, luminescent beta-arrestin readout, dose response (AID 504728); format: functional
T2 sequence (P51684 whole entry): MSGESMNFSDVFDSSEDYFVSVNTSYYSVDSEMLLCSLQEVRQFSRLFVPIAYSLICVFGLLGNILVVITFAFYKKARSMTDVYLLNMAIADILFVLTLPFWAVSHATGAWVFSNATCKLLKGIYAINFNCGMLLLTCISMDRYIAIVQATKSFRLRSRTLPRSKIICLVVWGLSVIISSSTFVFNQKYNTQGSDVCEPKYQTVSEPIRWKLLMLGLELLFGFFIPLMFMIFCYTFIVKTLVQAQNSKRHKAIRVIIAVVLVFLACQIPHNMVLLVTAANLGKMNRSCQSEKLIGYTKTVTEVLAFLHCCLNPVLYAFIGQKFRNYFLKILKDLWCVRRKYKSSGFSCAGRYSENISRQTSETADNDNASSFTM

SUMO-activating enzyme [4] = target: T1, SUMO-activating enzyme; experiment: blockers of SAE1/SAE2–UBC9 SUMO transfer – biochemical, HTRF, uHTS, primary screen (AID 2006); format: protein-complex assay
[5] = target: T3, Alkaline phosphatase, tissue-nonspecific isozyme (Homo sapiens, UniProt P05186); experiment: TNAP enzyme inhibition by screening hits, dose response, selectivity assay for mouse IAP inhibitor project, biochemical, human TNAP, uHTS hits (AID 488906); format: functional
T3 sequence (P05186 whole entry): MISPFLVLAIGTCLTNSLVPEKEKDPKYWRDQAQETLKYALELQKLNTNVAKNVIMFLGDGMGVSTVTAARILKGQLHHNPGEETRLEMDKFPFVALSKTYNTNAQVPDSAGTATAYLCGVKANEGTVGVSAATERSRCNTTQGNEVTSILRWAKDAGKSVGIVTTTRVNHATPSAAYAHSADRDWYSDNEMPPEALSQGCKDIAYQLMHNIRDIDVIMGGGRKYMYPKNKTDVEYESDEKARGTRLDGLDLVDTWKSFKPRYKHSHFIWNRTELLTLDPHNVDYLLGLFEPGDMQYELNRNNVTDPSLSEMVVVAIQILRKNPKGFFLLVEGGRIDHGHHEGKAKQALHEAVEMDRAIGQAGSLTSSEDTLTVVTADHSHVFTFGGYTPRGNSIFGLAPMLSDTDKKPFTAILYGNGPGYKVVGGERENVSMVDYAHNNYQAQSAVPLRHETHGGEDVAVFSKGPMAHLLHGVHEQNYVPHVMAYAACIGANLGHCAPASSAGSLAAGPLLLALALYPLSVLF

[6] = target: T4, Intestinal-type alkaline phosphatase (Homo sapiens, UniProt P09923); experiment: inhibition of human intestinal alkaline phosphatase – biochemical, dose response (AID 488876); format: functional
T4 sequence (P09923 whole entry): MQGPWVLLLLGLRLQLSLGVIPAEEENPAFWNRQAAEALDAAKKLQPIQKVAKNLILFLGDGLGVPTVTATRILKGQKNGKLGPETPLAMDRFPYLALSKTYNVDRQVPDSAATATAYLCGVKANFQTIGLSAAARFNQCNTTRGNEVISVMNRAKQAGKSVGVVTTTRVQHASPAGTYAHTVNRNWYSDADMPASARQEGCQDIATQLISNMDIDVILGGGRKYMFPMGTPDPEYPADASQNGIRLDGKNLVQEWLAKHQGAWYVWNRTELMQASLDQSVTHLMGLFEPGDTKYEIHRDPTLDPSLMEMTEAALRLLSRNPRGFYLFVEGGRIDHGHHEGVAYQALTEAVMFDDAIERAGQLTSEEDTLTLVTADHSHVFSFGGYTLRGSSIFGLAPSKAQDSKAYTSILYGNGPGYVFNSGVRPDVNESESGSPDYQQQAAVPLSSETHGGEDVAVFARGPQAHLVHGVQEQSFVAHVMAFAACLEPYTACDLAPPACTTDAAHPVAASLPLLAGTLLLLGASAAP

[7] = target: T5, Intestinal-type alkaline phosphatase (Mus musculus, UniProt P24822); experiment: PubChem AID 488785; format: functional
T5 sequence (P24822 whole entry): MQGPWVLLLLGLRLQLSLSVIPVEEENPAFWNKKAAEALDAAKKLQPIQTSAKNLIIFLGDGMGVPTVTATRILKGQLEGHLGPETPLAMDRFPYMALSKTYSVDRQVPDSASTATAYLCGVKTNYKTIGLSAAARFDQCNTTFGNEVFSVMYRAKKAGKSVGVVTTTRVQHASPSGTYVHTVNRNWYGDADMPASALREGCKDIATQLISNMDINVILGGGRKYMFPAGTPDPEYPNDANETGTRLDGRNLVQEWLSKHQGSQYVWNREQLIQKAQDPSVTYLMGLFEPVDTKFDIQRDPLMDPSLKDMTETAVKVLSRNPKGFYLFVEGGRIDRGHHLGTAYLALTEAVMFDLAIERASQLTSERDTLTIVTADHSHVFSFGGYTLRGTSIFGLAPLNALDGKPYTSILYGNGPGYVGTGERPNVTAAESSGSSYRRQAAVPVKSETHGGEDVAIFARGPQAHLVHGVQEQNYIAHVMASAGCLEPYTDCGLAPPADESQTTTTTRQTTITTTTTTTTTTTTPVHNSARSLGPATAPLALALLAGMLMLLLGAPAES

[8] = target: T4, Intestinal-type alkaline phosphatase; experiment: inhibition of human intestinal alkaline phosphatase – biochemical, luminescent, uHTS hits, set 2, dose response (AID 488793); format: functional
[9] = target: T4, Intestinal-type alkaline phosphatase; experiment: Dose Response confirmation of uHTS hits from a small molecule inhibitors of human intestinal alkaline phosphatase via a luminescent assay. [Related pubchem assays (depositor defined):AID2544, AID2574]; format: functional
[10] = target: T3, Alkaline phosphatase, tissue-nonspecific isozyme; experiment: inhibition of tissue-nonspecific alkaline phosphatase – biochemical, dose response (AID 488882); format: functional
[11] = HGIII-sPLA2 enzyme inhibition potency – biochemical, QFRET, IC50, dose response (AID 743457);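 note: green fluorescence rise as the enzyme cleaves BODIPY PC-A2 in liposomes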
[12] = target: T5, Intestinal-type alkaline phosphatase; experiment: PubChem AID 488874; format: functional

Chain of Lysine-specific demethylase 4A (O75164 whole entry): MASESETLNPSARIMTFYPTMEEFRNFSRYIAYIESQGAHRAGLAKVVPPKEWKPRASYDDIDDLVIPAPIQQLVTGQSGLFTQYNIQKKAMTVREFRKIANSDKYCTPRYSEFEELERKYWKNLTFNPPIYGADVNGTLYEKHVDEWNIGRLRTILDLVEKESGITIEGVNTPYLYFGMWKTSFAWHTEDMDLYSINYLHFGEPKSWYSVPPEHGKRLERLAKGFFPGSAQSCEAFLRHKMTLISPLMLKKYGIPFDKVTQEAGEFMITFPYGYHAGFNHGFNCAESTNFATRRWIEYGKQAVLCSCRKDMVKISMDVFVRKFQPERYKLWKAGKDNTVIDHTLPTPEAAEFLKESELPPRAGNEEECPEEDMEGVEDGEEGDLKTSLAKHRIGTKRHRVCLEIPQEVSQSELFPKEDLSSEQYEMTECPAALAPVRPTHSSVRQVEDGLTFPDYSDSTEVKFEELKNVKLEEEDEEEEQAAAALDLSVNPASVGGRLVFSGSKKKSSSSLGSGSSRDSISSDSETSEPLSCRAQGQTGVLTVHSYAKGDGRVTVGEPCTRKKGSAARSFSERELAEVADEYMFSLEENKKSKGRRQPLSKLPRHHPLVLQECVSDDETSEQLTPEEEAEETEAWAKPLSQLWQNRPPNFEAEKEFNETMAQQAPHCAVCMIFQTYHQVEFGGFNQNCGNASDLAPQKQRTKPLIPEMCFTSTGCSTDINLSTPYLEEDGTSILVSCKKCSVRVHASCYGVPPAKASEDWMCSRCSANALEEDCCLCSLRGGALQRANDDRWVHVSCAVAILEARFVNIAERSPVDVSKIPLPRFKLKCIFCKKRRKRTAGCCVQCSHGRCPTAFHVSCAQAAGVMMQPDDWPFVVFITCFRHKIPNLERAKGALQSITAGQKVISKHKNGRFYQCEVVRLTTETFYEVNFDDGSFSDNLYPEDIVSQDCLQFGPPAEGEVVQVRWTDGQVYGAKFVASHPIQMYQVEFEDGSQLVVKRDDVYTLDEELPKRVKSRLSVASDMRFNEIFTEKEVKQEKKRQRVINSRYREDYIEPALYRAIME

AC50 [1]: > 60 µM (inactive)
Compound: Cc1cc(C(=O)Nc2sc3c(c2C#N)CCC(C)C3)no1 (stereo not drawn)

IC50 (Beta-galactosidase): > 66.6 µM (inactive)
IC50 (SUMO-activating enzyme [2]): 18.2 µM (active)
IC50 [3]: > 66.6 µM (inactive)
IC50 (SUMO-activating enzyme [4]): 8.52 µM (active)
Compound: N#C/C(=C\c1ccc(-c2ccc([N+](=O)[O-])cc2)o1)C(=O)Nc1nc(-c2cccs2)cs1

Compound: COc1ccc(CN2C3CCCC2CC(NC(=O)Nc2cccc(C)c2)C3)cc1 (stereo not drawn)
IC50 [5]: 32.2 µM (active)
IC50 [6]: 22.7 µM (active)
IC50 [7]: 11 µM (active)

IC50 [8]: 52.5 µM (active)
IC50 [9]: 13 µM (inactive)
IC50 [10]: 47.1 µM (active)
IC50 [11]: > 122 µM (inactive)
IC50 [12]: 35.3 µM (active)
Compound: CCN(CC)c1ccc(N=Nc2nn(C)c(C)c2[N+](=O)[O-])cc1

From ChEMBL document CHEMBL1201862, “PubChem BioAssay data set” (2004)
